Experiment [1] relates to ovarian cancer cell line, SK-OV-3. The experiment can be described thus: SK-OV-3 cell growth inhibition (MTT, 72 hrs). The settings on record: Homo sapiens, concentration giving 50% cell survival, reported as ranges. The class given is cell-based. The method, then:
Compounds of the invention also were tested for their ability to inhibit the growth of an ovarian cancer cell line, SK-OV-3. A known assay previously used for measuring cell growth (as described in Hansen, M. B., Nielsen, S. E., and Berg, K. (1989) J. Immunol. Methods 119, 203-210 and incorporated herein by reference in its entirety) was used. Briefly, SK-OV-3 cells are seeded in 96-well plates in McCoy's medium containing 10% fetal bovine serum albumin (5,000 per well) and incubated overnight at 37° C. The next day, test compounds are added at various concentrations (0.003-10 μM) and the plates are incubated at 37° C. for an additional 72 hrs. This incubation time was considered to be optimal for measuring inhibitory effects of the different compounds tested. 50 microliters of 5 mg/mL MTT reagent is added to each well and the plates are incubated at 37° C. for another three (3) hours. At the end of the three (3) hour incubation period, 50 microliters of DMSO is added to each well to dissolve cells and the optical density (OD) of the wells is measured with a microplate reader (Victor^2 1420, Wallac, Finland) at 535 nm. Cell survival (CS) was calculated using the following equation: CS=(OD treated well/mean OD control wells)×100%.
The CC50 (reported in the following tables), is defined as the drug concentration that results in 50% cell survival (CS), and is derived by calculating the point where the dose-response curve crosses the 50% CS point using GraphPad Prism. The reported CC50 values are supplied as ranges (A=<0.1 μM, B=0.1 μM to 1 μM, C=>1 μM to 10 μM, D=>10 μM).

In the next experiment the target is T1, XIAP BIR-3 (Homo sapiens, UniProt P98170).
T1 construct: 40 nM of the respective IAP BIR3
T1 sequence (P98170 241-356 limits assumed): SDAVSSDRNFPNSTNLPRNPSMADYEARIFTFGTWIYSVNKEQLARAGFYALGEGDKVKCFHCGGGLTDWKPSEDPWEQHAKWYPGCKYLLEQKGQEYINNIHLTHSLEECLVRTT
The experiment in a line: Fluorescence polarization binding to XIAP BIR-3 with labeled peptide AbuRPF-K(5-Fam)-NH2. The settings on record: 40 nM BIR3, 5 nM labeled peptide, reported as ranges. The method, then: (§1) The binding affinities of the compounds are reported as a KD value (μM). Briefly, various concentrations of test peptides were mixed with 5 nM of the fluorescently labeled peptide (i.e., a mutated N-terminal Smac peptide—AbuRPF-K(5-Fam)-NH2) and 40 nM of the respective IAP BIR3 for 15 min at RT in […] of 0.1M Potassium Phosphate buffer, pH 7.5 containing 100 mg/ml bovine g-globulin. Following incubation, the polarization values (mP) were measured on a Victor2V (available from PerkinElmer Life Sciences) using a 485 nm excitation filter and a 520 nm emission filter. The reported binding affinities (KD values) are supplied as ranges (A=<0.1 μM, B=0.1 μM to 1 μM, C=>1 μM to 10 μM, D=>10 μM).
(In general: In fluorescence polarisation assays a small probe gives low polarisation when free and higher when bound to something large.)

The target of the next experiment is T2, cIAP-1 BIR-3 (Homo sapiens, UniProt Q13490).
T2 construct: 40 nM of the respective IAP BIR3
T2 sequence (Q13490 253-363 limits assumed): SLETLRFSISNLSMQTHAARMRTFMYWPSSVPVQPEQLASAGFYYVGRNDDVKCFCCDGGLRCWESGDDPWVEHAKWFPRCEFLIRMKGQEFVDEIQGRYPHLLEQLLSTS
The experiment in a line: Fluorescence polarization binding to cIAP-1 BIR-3 with labeled peptide AbuRPF-K(5-Fam)-NH2. The settings on record: 40 nM BIR3, 5 nM labeled peptide, reported as ranges, read-out: KD (c-IAP-1 BIR3). The procedure: as §1

SMILES strings stand for the structures. Some results are limits rather than exact numbers.

A word on the CC50: it is the concentration that lowers cell viability or growth by half. Low values mean harm at low concentration, high ones better tolerance by the cells. Usually Kd stands for the constant that tells how readily two partners part at equilibrium.

For the compound `CN[C@@H](C)C(=O)N[C@H](C(=O)N1CC[C@@H]2[C@H]1[C@@H](Oc1ccc(F)c(F)c1)CN2C1CCCC1)C(C)(C)C` [Example 17, N-{1-[4-Cyclopentyl-6-(3,4-difluoro-phenoxy)-hexahydro-pyrrolo[3,2-b]pyrrole-1-carbonyl]-2,2-dimethyl-propyl}-2-methylamino-propionamide], the CC50 in experiment [1] was less than 100 nM. For the same compound, the Kd is 100 to 1000 nM at XIAP BIR-3 and less than 100 nM at cIAP-1 BIR-3.
In experiment [1], `CN[C@@H](C)C(=O)N[C@H](C(=O)N1CC[C@@H]2[C@H]1[C@@H](Oc1ccc(F)cc1)CN2S(C)(=O)=O)[C@@H](C)OC` [Example 11, N-{1-[6-(4-Fluoro-phenoxy)-4-methanesulfonyl-hexahydro-pyrrolo[3,2-b]pyrrole-1-carbonyl]-2-methoxy-propyl}-2-methylamino-propionamide] displayed a CC50 of less than 100 nM. Further, the Kd on XIAP BIR-3 and on cIAP-1 BIR-3 was less than 100 nM throughout.
In experiment [1], `CN[C@@H](C)C(=O)N[C@H](C(=O)N1CC[C@@H]2[C@H]1[C@@H](Oc1ccc(F)c(F)c1)CN2c1ncccn1)C(C)(C)C` [Example 18, N-{1-[6-(3,4-Difluoro-phenoxy)-4-pyrimidin-2-yl-hexahydro-pyrrolo[3,2-b]pyrrole-1-carbonyl]-2,2-dimethyl-propyl}-2-methylamino-propionamide] returned a CC50 of less than 100 nM. The Kd on XIAP BIR-3 and at cIAP-1 BIR-3 was less than 100 nM in each case.
In the case of `CN[C@@H](C)C(=O)N[C@H](C(=O)N1CC[C@@H]2[C@H]1[C@@H](OCc1ccc(F)cc1)CN2C(=O)NCc1ccccc1)C(C)(C)C` [Example 30, 4-[3,3-Dimethyl-2-(2-methylamino-propionylamino)-butyryl]-3-(4-fluoro-benzyloxy)-hexahydro-pyrrolo[3,2-b]pyrrole-1-carboxylic acid benzylamide], the CC50 in experiment [1] was less than 100 nM. The Kd at XIAP BIR-3 and on cIAP-1 BIR-3 was less than 100 nM in each case.
Consider `CCCCNC(=O)O[C@H]1CN(C(=O)NC(C)C)[C@@H]2CCN(C(=O)[C@@H](NC(=O)[C@H](C)NC)C(C)(C)C)[C@H]12` [Example 53, Butyl-carbamic acid 4-[3,3-dimethyl-2-(2-methylamino-propionylamino)-butyryl]-1-isopropylcarbamoyl-octahydro-pyrrolo[3,2-b]pyrrol-3-yl ester], for which, in experiment [1], the CC50 was in the range of 100 to 1000 nM. Moreover, the values for the Kd on XIAP BIR-3 and at cIAP-1 BIR-3 were 100 to 1000 nM and less than 100 nM, respectively.
`CNC(=O)N1C[C@H](COc2ccc(F)c(F)c2)[C@@H]2[C@H]1CCN2C(=O)[C@@H](NC(=O)[C@H](C)NC)C(C)(C)C` [Example 62, 3-(3,4-Difluoro-phenoxymethyl)-4-[3,3-dimethyl-2-(2-methylamino-propionylamino)-butyryl]-hexahydro-pyrrolo[3,2-b]pyrrole-1-carboxylic acid methylamide] returned a CC50 in experiment [1] of less than 100 nM. Further, the Kd at XIAP BIR-3 and on cIAP-1 BIR-3 was less than 100 nM each time.
In turn, `CN[C@@H](C)C(=O)N[C@H](C(=O)N1CC[C@@H]2[C@H]1[C@@H](COc1ccc(F)c(F)c1)CN2C(=O)C(C)=O)C(C)(C)C` [Example 66, N-{1-[6-(3,4-Difluoro-phenoxymethyl)-4-(2-oxo-propionyl)-hexahydro-pyrrolo[3,2-b]pyrrole-1-carbonyl]-2,2-dimethyl-propyl}-2-methylamino propionamide] displayed a CC50 in experiment [1] of less than 100 nM. Further, the Kd on XIAP BIR-3 and on cIAP-1 BIR-3 was less than 100 nM in each case.
Regarding `CN[C@@H](C)C(=O)N[C@H](C(=O)N1CC[C@@H]2[C@H]1[C@@H](COc1ccc(F)c(F)c1)CN2C(=O)NC(C)C)C(C)(C)C` [Example 67, 3-(3,4-Difluoro-phenoxymethyl)-4-[3.3-dimethyl-2-(2-methylaminopropionylamino)-butyryl]-hexahydro-pyrrolo[3,2-b]pyrrole-1-carboxylic acid isopropylamide], in experiment [1], the 50% cytotoxic concentration (CC50) was less than 100 nM. Moreover, the Kd on XIAP BIR-3 and on cIAP-1 BIR-3 was less than 100 nM throughout.
With `CNC(=O)N1C[C@H](Oc2ccc(F)cc2)[C@@H]2[C@H]1CCN2C(=O)[C@@H](NC(=O)[C@H](C)NC)C1CCCCC1` [Example 26, 4-[2-Cyclohexyl-2-(2-methylamino-propionylamino)-acetyl]-3-(4-fluoro-phenoxy)-hexahydro-pyrrolo[3,2-b]pyrrole-1-carboxylic acid methylamide], the CC50 in experiment [1] was less than 100 nM. In addition, the Kd at XIAP BIR-3 and at cIAP-1 BIR-3 was less than 100 nM in each case.
The compound `CN[C@@H](C)C(=O)N[C@H](C(=O)N1CC[C@H]2NC[C@H](Oc3cccc4c3CCCC4)[C@H]21)C1CCCCC1` [Example 5, N-{1-Cyclohexyl-2-oxo-2-[6-(5,6,7,8-tetrahydro-naphthalen-1-yloxy)-hexahydro-pyrrolo[3,2-b]pyrrol-1-yl]-ethyl}-2-methylamino-propionamide] yielded a CC50 in experiment [1] of 100 to 1000 nM. Besides, the Kd on XIAP BIR-3 is 100 to 1000 nM; on cIAP-1 BIR-3, less than 100 nM.
The compound `CN[C@@H](C)C(=O)N[C@H](C(=O)N1CC[C@@H]2[C@H]1[C@@H](OCc1ccc(F)cc1)CN2C(=O)CC(C)C)C(C)(C)C` [Example 39, N-{1-[6-(4-Fluoro-benzyloxy)-4-(3-methyl-butyryl)-hexahydro-pyrrolo[3,2-b]pyrrole-1-carbonyl]-2,2-dimethyl-propyl}-2-methylamino-propionamide] showed a CC50 in experiment [1] of less than 100 nM. Further, the Kd on XIAP BIR-3 and at cIAP-1 BIR-3 was less than 100 nM throughout.
`CN[C@@H](C)C(=O)N[C@H](C(=O)N1CC[C@@H]2[C@H]1[C@@H](Oc1ccccc1)CN2C(C)=O)C(C)C` [Example 2, N-[1-(4-Acetyl-6-phenoxy-hexahydro-pyrrolo[3,2-b]pyrrole-1-carbonyl)-2-methyl-propyl]-2-methylamino-propionamide] had a CC50 in experiment [1] of less than 100 nM. Also, the Kd at XIAP BIR-3 is 1000 to 10000 nM; on cIAP-1 BIR-3 it was less than 100 nM.
In the case of `CN[C@@H](C)C(=O)N[C@H](C(=O)N1CC[C@H]2NC[C@H](Oc3ccc4c(c3)CCCC4)[C@H]21)C1CCCCC1` [Example 6, N-{1-Cyclohexyl-2-oxo-2-[6-(5,6,7,8-tetrahydro-naphthalen-2-yloxy)-hexahydro-pyrrolo[3,2-b]pyrrol-1-yl]-ethyl}-2-methylamino-propionamide], the CC50 in experiment [1] was less than 100 nM. Moreover, the Kd on XIAP BIR-3 and at cIAP-1 BIR-3 was less than 100 nM each time.
`CN[C@@H](C)C(=O)N[C@H](C(=O)N1CC[C@@H]2[C@H]1[C@@H](OCc1ccc(F)cc1)CN2C1CCOCC1)C(C)(C)C` [Example 43, (S)—N—((S)-1-((3aR,6S,6aS)-6-(4-fluorobenzyloxy)-4-(tetrahydro-2H-pyran-4-yl)hexahydropyrrolo[3,2-b]pyrrol-1(2H)-yl)-3,3-dimethyl-1-oxobutan-2-yl)-2-(methylamino)propanamide] had a CC50 in experiment [1] of less than 100 nM. The equilibrium dissociation constant (Kd) at XIAP BIR-3 is 100 to 1000 nM; at cIAP-1 BIR-3, less than 100 nM.
Take `CN[C@@H](C)C(=O)N[C@H](C(=O)N1CC[C@H]2NC[C@H](Oc3cccc4ccccc34)[C@H]21)C1CCCCC1` [Example 8, N-{1-Cyclohexyl-2-[6-(naphthalen-1-yloxy)-hexahydro-pyrrolo[3,2-b]pyrrol-1-yl]-2-oxo-ethyl}-2-methylamino-propionamide]: the CC50 in experiment [1] lay within 100 to 1000 nM. For the same compound, the Kd at XIAP BIR-3 and at cIAP-1 BIR-3 was less than 100 nM in each case.
